Data reported in the supplement of paper PMC13380429.
± gives the standard deviation of the averaged measurements.

Experiments:
Conditions in all cases: 72 h
[1] = test system: U2OS; assay: relative viability EC50 (midpoint between 100% and the lowest measured viability); higher = less toxic
[2] = test system: Calu-3; assay: as above
[3] = test system: HepG2; assay: as above
[4] = test system: Caco-2; assay: as above
[5] = test system: Vero E6; assay: as above
[6] = test system: U2OS; assay: drug sensitivity score (DSS) for viability; higher = more toxic; extreme values may be limits of the assay
[7] = test system: Calu-3; assay: as above
[8] = test system: HepG2; assay: as above
[9] = test system: Caco-2; assay: as above
[10] = test system: Vero E6; assay: as above
[11] = test system: U2OS; assay: cell viability relative to DMSO; higher = less toxic
[12] = test system: Calu-3; assay: as above
[13] = test system: HepG2; assay: as above
[14] = test system: Caco-2; assay: as above
[15] = test system: Vero E6; assay: as above

Row | SMILES | relative viability EC50 [1] | relative viability EC50 [2] | relative viability EC50 [3] | relative viability EC50 [4] | relative viability EC50 [5] | drug sensitivity score [6] | drug sensitivity score [7] | drug sensitivity score [8] | drug sensitivity score [9] | drug sensitivity score [10] | cell viability ([11]; 1 nM) | cell viability ([11]; 10 nM) | cell viability ([11]; 100 nM) | cell viability ([11]; 1000 nM) | cell viability ([11]; 10000 nM) | cell viability ([12]; 1 nM) | cell viability ([12]; 10 nM) | cell viability ([12]; 100 nM) | cell viability ([12]; 1000 nM) | cell viability ([12]; 10000 nM) | cell viability ([13]; 1 nM) | cell viability ([13]; 10 nM) | cell viability ([13]; 100 nM) | cell viability ([13]; 1000 nM) | cell viability ([13]; 10000 nM) | cell viability ([14]; 1 nM) | cell viability ([14]; 10 nM) | cell viability ([14]; 100 nM) | cell viability ([14]; 1000 nM) | cell viability ([14]; 10000 nM) | cell viability ([15]; 1 nM) | cell viability ([15]; 10 nM) | cell viability ([15]; 100 nM) | cell viability ([15]; 1000 nM) | cell viability ([15]; 10000 nM)
1 | CO[C@H]1/C=C/O[C@@]2(C)Oc3c(C)c(O)c4c(O)c(cc(O)c4c3C2=O)NC(=O)/C(C)=C\C=C\[C@H](C)[C@H](O)[C@@H](C)[C@@H](O)[C@@H](C)[C@H](OC(C)=O)[C@@H]1C [rifamycin-sv] | > 10 µM | > 10 µM | > 10 µM | > 10 µM | > 10 µM | 0 | 0 | 0.25 ± 0.35 | 0 | 0 | 101 ± 2.6% | 102 ± 3.1% | 100% | 105 ± 2.8% | 100 ± 1.8% | 89.1% | 90.3% | 106% | 96.5% | 97% | 99.2 ± 5.4% | 92.7 ± 7.1% | 110 ± 4% | 88 ± 5.7% | 92.2 ± 7.7% | 102.6 ± 0.71% | 101 ± 1.5% | 103 ± 2.9% | 103 ± 4.1% | 95.8 ± 5.3% | 99.5 ± 3.5% | 96.8 ± 1.3% | 99.4 ± 2.4% | 97.2 ± 2.3% | 99.3 ± 4.4%
2 | C/C=C1\NC(=O)[C@H]2CSSCC/C=C/[C@H](CC(=O)N[C@H](C(C)C)C(=O)N2)OC(=O)[C@H](C(C)C)NC1=O [romidepsin] | 0.0117 µM | 0.0068 µM | 0.0052 µM | 0.0451 µM | 0.217 µM | 35.1 | 37 | 39.4 | 28.5 | 20 | 96.9% | 55.5% | 5.6% | 0.5% | 0.2% | 92.5% | 39.4% | 8.7% | 6.3% | 2.5% | 87.1% | 31.9% | 0.5% | -0.4% | 0.1% | 104% | 124% | 6.6% | 1.4% | 0.2% | 98.1% | 102% | 87.8% | 0.1% | -0.1%
3 | CN1CCN(c2nc(C3=C(c4c[nH]c5ccccc45)C(=O)NC3=O)c3ccccc3n2)CC1 [sotrastaurin] | > 10 µM | > 10 µM | > 10 µM | > 10 µM | > 10 µM | 0 | 0 | 0 | 0.9 | 0 | 95.6% | 94% | 103% | 95% | 94.1% | 101% | 94.6% | 96% | 97.6% | 98.6% | 108% | 107% | 101% | 104% | 92.6% | 96.3% | 102% | 99.1% | 86.8% | 89.7% | 96.1% | 99.4% | 100% | 99.3% | 101%
4 | CCCCNc1ccc(C(=O)OCCN(C)C)cc1 [tetracaine] | > 10 µM | > 10 µM | > 10 µM | > 10 µM | > 10 µM | 0 | 0 | 0 | 0 | 0 | 104% | 97.4% | 98.7% | 98.2% | 102% | 107% | 101% | 98.2% | 98.4% | 108% | 99.5% | 99.3% | 104% | 104% | 94.3% | 101% | 92.7% | 105% | 100% | 101% | 107% | 105% | 103% | 101% | 99.5%
5 | CCCCS(=O)(=O)N[C@@H](Cc1ccc(OCCCCC2CCNCC2)cc1)C(=O)O [tirofiban] | > 10 µM | > 10 µM | > 10 µM | > 10 µM | > 10 µM | 0 | 0 | 0 | 0 | 0 | 95.5% | 98.5% | 98.7% | 101% | 105% | 94.5% | 84.1% | 96.3% | 105% | 110% | 99.1% | 102% | 104% | 91.5% | 99.6% | 94% | 99.9% | 98.3% | 104% | 107% | 94.8% | 93.5% | 93.7% | 86.3% | 101%
6 | Cc1c(Cl)cccc1Nc1ccccc1C(=O)O [tolfenamic-acid] | > 10 µM | > 10 µM | > 10 µM | > 10 µM | > 10 µM | 0 | 0 | 0 | 0 | 0 | 98.9% | 95% | 101% | 101% | 98.8% | 98.8% | 96.3% | 92.7% | 92.4% | 101% | 98.4% | 111% | 106% | 110% | 103% | 95.7% | 99% | 102% | 96.4% | 107% | 98.1% | 103% | 90.4% | 98.8% | 101%
7 | COc1ccc2c(C(=S)N(C)CC(=O)O)cccc2c1C(F)(F)F [tolrestat] | > 10 µM | > 10 µM | > 10 µM | > 10 µM | > 10 µM | 0 | 0 | 0 | 0 | 0 | 94.7% | 98.4% | 96.5% | 98% | 99.1% | 103% | 100% | 94.5% | 107% | 98.6% | 91.2% | 98.6% | 94.9% | 94.2% | 103% | 92.9% | 95.8% | 90.6% | 98.9% | 89.3% | 94.7% | 95.9% | 93.5% | 91.2% | 96.8%
8 | CN1CCc2c(c3ccccc3n2Cc2ccc(C(=O)NO)cc2)C1 [tubastatin-A] | > 10 µM | > 10 µM | 2.02 µM | > 10 µM | > 10 µM | 1 | 1.2 | 5 | 0 | 0.6 | 102% | 97% | 99.3% | 89.2% | 84% | 108% | 93.5% | 99.6% | 89.9% | 81.5% | 107% | 104% | 90.1% | 90.9% | 36.9% | 97.2% | 91.2% | 99% | 93.3% | 88.9% | 98.7% | 102% | 101% | 102% | 78.3%
9 | CCOC(=O)C1=C[C@]2(CC)CCCN3CCc4c(n1c1ccccc41)[C@@H]32 [vinpocetine] | > 10 µM | > 10 µM | > 10 µM | > 10 µM | > 10 µM | 0 | 0 | 0 | 0 | 0 | 97.6% | 101% | 102% | 101% | 101% | 106% | 95.9% | 94% | 105% | 98.3% | 97.7% | 94% | 99.7% | 89.7% | 108% | 92% | 96.7% | 91.7% | 98.4% | 104% | 98.8% | 87.7% | 95.9% | 91.8% | 107%
10 | Cc1c(C)c2c(c(C)c1O)CC[C@@](C)(CCC[C@H](C)CCC[C@H](C)CCCC(C)C)O2 [vitamin-E] | > 10 µM | > 10 µM | > 10 µM | > 10 µM | > 10 µM | 0 | 0 | 0 | 0 | 0 | 99.9% | 95.1% | 103% | 94.9% | 97.2% | 98.9% | 82.6% | 102% | 99.3% | 91.7% | 93.6% | 100% | 91% | 106% | 108% | 101% | 89.8% | 97.1% | 94.8% | 98.5% | 86.5% | 99.4% | 88.5% | 101% | 103%
11 | Cc1cc(C(C)(C)C)cc(C)c1CC1=NCCN1 [xylometazoline] | > 10 µM | > 10 µM | > 10 µM | > 10 µM | > 10 µM | 0 | 0 | 0 | 0 | 0 | 98.5% | 93.2% | 102% | 97.3% | 103% | 98.6% | 92.4% | 108% | 92% | 108% | 107% | 93.4% | 89.6% | 116% | 101% | 100% | 74.7% | 99.8% | 97.6% | 105% | 112% | 98.2% | 97.3% | 112% | 89.8%
